How the values were obtained:
[1] = biological target: T1, Oestrogen Receptor of a Rat's Uterus (ROR) (Rattus norvegicus, UniProt P06211); experiment: Oestrogen receptor of a rat's uterus (ROR): displacement of tritiated oestradiol, relative bond affinity; type: binding; conditions: oestradiol = 100; RBA=100(CH)/(CX); rat uterus cytosol, incubation 0° C. for 24 hours
T1 construct: the uteri are removed, then homogenized at 0° C; from tissue; host or cells: rat uterus cytosol (ultracentrifugation supernatant of homogenate)
T1 sequence (P06211 1-600): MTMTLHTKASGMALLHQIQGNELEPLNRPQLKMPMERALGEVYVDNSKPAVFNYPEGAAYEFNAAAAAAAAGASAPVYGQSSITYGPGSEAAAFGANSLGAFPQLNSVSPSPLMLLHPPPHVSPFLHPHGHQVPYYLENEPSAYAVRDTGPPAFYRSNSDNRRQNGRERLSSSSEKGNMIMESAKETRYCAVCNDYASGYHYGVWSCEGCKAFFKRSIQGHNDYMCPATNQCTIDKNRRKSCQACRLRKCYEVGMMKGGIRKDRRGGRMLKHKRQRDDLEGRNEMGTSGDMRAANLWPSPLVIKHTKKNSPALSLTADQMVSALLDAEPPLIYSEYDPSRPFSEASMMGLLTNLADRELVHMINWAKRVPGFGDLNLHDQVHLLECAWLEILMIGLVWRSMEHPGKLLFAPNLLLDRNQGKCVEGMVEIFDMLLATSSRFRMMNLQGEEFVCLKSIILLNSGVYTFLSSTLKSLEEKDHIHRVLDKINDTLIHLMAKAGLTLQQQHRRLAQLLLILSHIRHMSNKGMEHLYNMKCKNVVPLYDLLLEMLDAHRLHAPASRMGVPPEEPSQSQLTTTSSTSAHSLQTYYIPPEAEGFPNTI
Description: Oestrogen Receptor of a Rat's Uterus (ROR):
Female rats of 280-300 g and castrated 24 hours beforehand, are sacrificed, the uteri are removed, then homogenized at 0° C., using a teflon-glass Potter in a buffered solution BS (10 mM Tris, 0.25 M saccharose, HCl pH 7.4) (1 g of tissue per 10 ml of BS). The homogenate is then ultracentrifuged (209,000 g×30mn.) at 0° C. The supernatant aliquots thus obtained are incubated at 0° C. for 24 hours, with a constant concentration (2.5 10^−9M) of tritiated oestrodiol in the presence of increasing concentrations either of unlabelled oestradiol (0-1000×10^−9M), or of unlabelled product to be tested […]. The concentration of bound tritiated oestradiol (B) is then measured in each incubate by the carbon-dextran adsorption technique.
(§1) Calculation of the Relative Bond Affinity (RBA):
(§2) The following two curves are drawn: the percentage of bound tritiated hormone 100×B/B0 as a function of the logarithm of the concentration of unlabelled reference hormone or as a function of the concentration of unlabelled test product.
(§3) The straight line of the equation
(§4) B0=concentration of bound tritiated hormone in the absence of any unlabelled product.
(§5) B=concentration of bound tritiated hormone in the presence of a concentration X of unlabelled product.
(§6) B min=concentration of bound tritiated hormone for an incubation of this tritiated hormone at a concentration (T) in the presence of a large excess of unlabelled reference hormone (1000×10^−9M) for the human receptor.
(§7) The intersections of the straight line I50 and the curves allow the evaluation of the concentrations of unlabelled reference hormone (CH) and of the unlabelled test product (CX) which inhibit by 50% the binding of the tritiated hormone on the receptor.
(§8) The relative bond affinity (RBA) of the test product is calculated by the equation: RBA=100(CH)/(CX).

[2] = biological target: T2, recombinant human oestrogen receptor (HOR) (Homo sapiens, UniProt P03372); experiment: Human oestrogen receptor (HOR): displacement of tritiated oestradiol, relative bond affinity; type: binding; conditions: oestradiol = 100, RBA=100(CH)/(CX); for HOR long t relative bond affinity (RBA): incubation 0° C. for 24 hours (long t); for HOR short t relative bond affinity (RBA): incubation 0° C. for 3 hours (short t)
T2 construct: made in house; host or cells: SF9 insect cells (ATCC CRL1711), baculovirus
T2 sequence (P03372 1-595): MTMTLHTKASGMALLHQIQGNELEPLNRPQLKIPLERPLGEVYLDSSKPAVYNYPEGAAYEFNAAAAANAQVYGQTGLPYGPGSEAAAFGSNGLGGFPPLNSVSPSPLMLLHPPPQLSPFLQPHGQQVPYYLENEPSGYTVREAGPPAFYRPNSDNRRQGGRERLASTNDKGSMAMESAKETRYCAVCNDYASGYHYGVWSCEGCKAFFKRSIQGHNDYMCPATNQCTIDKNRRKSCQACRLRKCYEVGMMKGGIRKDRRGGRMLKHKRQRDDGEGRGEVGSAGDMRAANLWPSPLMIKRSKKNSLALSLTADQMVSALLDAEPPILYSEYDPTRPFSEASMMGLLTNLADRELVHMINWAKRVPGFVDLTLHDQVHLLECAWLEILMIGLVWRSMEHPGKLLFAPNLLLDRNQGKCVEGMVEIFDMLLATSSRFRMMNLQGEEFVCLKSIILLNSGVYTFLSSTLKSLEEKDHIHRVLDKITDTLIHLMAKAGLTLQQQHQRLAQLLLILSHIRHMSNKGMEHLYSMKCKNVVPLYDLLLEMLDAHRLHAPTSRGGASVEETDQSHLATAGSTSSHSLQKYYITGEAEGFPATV
From the text: Human Oestrogen Receptor (HOR)
A cytosolic extract of SF9 cells containing the recombinant human oestrogen receptor is obtained by overexpression in an insect-Baculovirus cell system, according to the general methodology described by N. R. WEBB et al. (Journal of Methods in Cell and Molecular Biology, (1990) Vol.2 No. 4, 173-188) and the application of which is described for the expression of human hormonal receptors, for example the human glucocorticoid receptor (G. SRINIVASAN et al. Molecular Endocrinology (1990) vol 4 No. 2 209-216).
The BaculoGold Transfection Kit (PharMingen, reference 21000K) is used to generate the recombinant baculovirus containing the cDNA fragment described in the expression vector HEGO by L. TORA et al. (The EMBO Journal (1989) vol. 8 No. 7 1981-1986), containing the coding region for the wild-type human oestrogen receptor with a glycine in position 400.
The recombinant virus thus obtained is used to express the oestrogen receptor in the SF9 insect cells (ATCC CRL1711), according to the known methodology mentioned previously.
2*10^7 SF9 cells are cultured in a 175 cm^2 “Falcon” flask in the TNM-FH “SIGMA” medium supplemented by 10% of foetal calf serum (FCS) and by 50 microgram/ml of gentamycin. After infection then incubation at 27° C. for 40 to 42 hours, the cells are lysed in 1 ml of lysis buffer (Tris 20 mM-HCl pH8, EDTA 0.5 mM, DTT 2 mM, Glycerol 20%, KCl 400 mM) with a freezing-thawing cycle which is repeated another two times. The supernatant, containing the recombinant human oestrogen receptor is kept in liquid nitrogen by 0.5 ml doses.
The supernatant is incubated at 0° C. for 24 hours (long t) or 3 hours (short t) with a constant concentration (T) of tritiated oestradiol in the presence of increasing concentrations of either unlabelled oestradiol (0-1000×10^−9M), or of unlabelled product to be tested (0-25000×10^−9M). The concentration of bound tritiated oestradiol (B) is then measured in each incubate by the technique of adsorption with carbon dextran.
as §1, §2, §3, §4, §5, §6, §7, §8

Row | SMILES | ROR relative bond affinity (RBA) [1] | HOR long t relative bond affinity (RBA) [2] | HOR short t relative bond affinity (RBA) [2]
1 | OCc1cc(Cl)c(-c2ccc(O)cc2)c(C(F)(F)F)c1 [Example 7, 2-chloro-4′-hydroxy-6-(trifluoromethyl)-(1,1′-biphenyl)-4-methanol] | 9.5 | 50 | 
2 | O=Cc1cc(Br)c(-c2ccc(O)cc2)c(Br)c1 [Example 1, 2,6-dibromo-4′-hydroxy-(1,1′-biphenyl)-4-carboxaldehyde] |  | 5.5 | 
3 | OCc1cc(Br)c(-c2ccc(O)cc2)c(Br)c1 [Example 2, 2,6-dibromo-4′-hydroxy-(1,1′-biphenyl)-4-methanol] | 12.5 | 74 | 425
4 | CCc1cc(C(C)C)c(-c2ccc(O)cc2)cc1C [Example 6, 4′-ethyl-5′-methyl-2′-(1-methylethyl)-(1,1′-biphenyl)-4-ol] |  | 4.5 | 
5 | OCc1c(Cl)c(Cl)c(-c2ccc(O)cc2)c(Cl)c1Cl [Example 26, 4′-hydroxy-2.3,5,6-tetrachloro-(1,1′-biphenyl)-4-methanol] |  | 5.5 | 
6 | O=[N+]([O-])c1cc(CO)cc([N+](=O)[O-])c1-c1ccc(O)cc1 [Example 30, 2,6-dinitro-4′-hydroxy-(1,1′-biphenyl)-4-methanol] | 2 | 5 | 24
7 | CC(C)c1cc(CO)cc(Cl)c1-c1ccc(O)cc1 [Example 4, 2-chloro-4′-hydroxy-6-(1-methylethyl)-(1,1′-biphenyl)-4-methanol] | 4 | 22 | 
8 | Cc1c(C(C)O)cc(C(C)C)c(-c2ccc(O)cc2)c1Cl (stereo not drawn) [Example 13, 1-[2-chloro-4′-hydroxy-3-methyl-6-(1-methylethyl)-(1,1′-biphenyl-4-yl)]-ethanol] | 0.8 | 7.5 | 24

The remaining lines, values ahead:

Row | ROR relative bond affinity (RBA) [1] | HOR long t relative bond affinity (RBA) [2] | HOR short t relative bond affinity (RBA) [2] | SMILES
9 | 8 | 0.07 |  | OCc1cc(Cl)c(-c2ccc(O)c(Cc3ccccc3)c2)c(Cl)c1 [Example 36, 2,6-dichloro-4′-hydroxy-5′-(phenylmethyl)-(1,1′-biphenyl)-4-methanol]
10 |  | 5 | 12 | O=Cc1cc(Cl)c(-c2ccc(O)cc2)c(Cl)c1 [Example 25, 2,6-dichloro-4′-hydroxy-(1,1′-biphenyl)-4-carboxaldehyde]
11 | 3 | 35 | 104 | OCc1cc(Cl)c(-c2ccc(O)cc2)c(Cl)c1 [Example 24, 2,6-dichloro-4′-hydroxy-(1,1′-biphenyl)-4-methanol]
12 | 0.15 | 0.6 |  | Cc1ccc(-c2ccc(O)cc2)c(C(F)(F)F)c1 [Example 29, 4′-methyl-2′-trifluoromethyl-(1,1′-biphenyl)-4-ol]
13 | 2 | 8 | 33 | OCc1ccc(-c2ccc(O)cc2)c(C(F)(F)F)c1 [Example 28, 4′-hydroxy-2-trifluoromethyl-(1,1′-biphenyl)-4-methanol]
14 | 5 | 34 |  | O=[N+]([O-])c1cc(CO)cc(Br)c1-c1ccc(O)cc1 [Example 18, 2-bromo-4′-hydroxy-6-nitro-(1,1′-biphenyl)-4-methanol]
